Assay results taken from patent publication US20250059217A1, “HETEROCYCLIC COMPOUNDS AND METHODS OF PREPARATION THEREOF” (priority 2021, published 2025).
Where two headings read alike, the source gives them in different places.

Legend:
other receptor sites [1] = biological target: other receptor sites (Homo sapiens, UniProt Q13639); assay: Functional activity at other receptor sites relative to psilocin (Table 5), further receptors; conditions: read-out: 5-HT4 EC50, 5-HT4 receptor, compared with psilocin
other receptor sites (Homo sapiens, UniProt Q13639), sequence (Q13639 whole entry): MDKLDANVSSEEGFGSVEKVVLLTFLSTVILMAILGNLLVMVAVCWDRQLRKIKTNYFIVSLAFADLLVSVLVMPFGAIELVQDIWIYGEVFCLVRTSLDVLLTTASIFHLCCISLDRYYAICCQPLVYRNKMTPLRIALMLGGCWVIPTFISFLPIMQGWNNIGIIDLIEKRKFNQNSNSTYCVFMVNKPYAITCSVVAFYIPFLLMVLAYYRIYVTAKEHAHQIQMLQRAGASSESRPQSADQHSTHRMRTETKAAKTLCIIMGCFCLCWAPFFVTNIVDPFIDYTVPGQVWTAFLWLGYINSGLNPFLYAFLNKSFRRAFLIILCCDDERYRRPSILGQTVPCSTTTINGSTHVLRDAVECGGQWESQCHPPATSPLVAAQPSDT

other receptor sites [2] = assay: as above; conditions: compared with psilocin; for 5-HT1A Eff %: 5-HT1A receptor; for 5-HT1B Eff %: 5-HT1B receptor; for 5-HT1D Eff %: 5-HT1D receptor; for 5-HT1E Eff %: 5-HT1E receptor; for 5-HT4 Eff %: 5-HT4 receptor; for 5-HT5A Eff %: 5-HT5A receptor; for 5-HT7 Eff %: 5-HT7 receptor
other receptor sites [3] = biological target: other receptor sites (Homo sapiens, UniProt P34969); assay: as above; conditions: read-out: 5-HT7 EC50, 5-HT7 receptor, compared with psilocin
other receptor sites (Homo sapiens, UniProt P34969), sequence (P34969 whole entry): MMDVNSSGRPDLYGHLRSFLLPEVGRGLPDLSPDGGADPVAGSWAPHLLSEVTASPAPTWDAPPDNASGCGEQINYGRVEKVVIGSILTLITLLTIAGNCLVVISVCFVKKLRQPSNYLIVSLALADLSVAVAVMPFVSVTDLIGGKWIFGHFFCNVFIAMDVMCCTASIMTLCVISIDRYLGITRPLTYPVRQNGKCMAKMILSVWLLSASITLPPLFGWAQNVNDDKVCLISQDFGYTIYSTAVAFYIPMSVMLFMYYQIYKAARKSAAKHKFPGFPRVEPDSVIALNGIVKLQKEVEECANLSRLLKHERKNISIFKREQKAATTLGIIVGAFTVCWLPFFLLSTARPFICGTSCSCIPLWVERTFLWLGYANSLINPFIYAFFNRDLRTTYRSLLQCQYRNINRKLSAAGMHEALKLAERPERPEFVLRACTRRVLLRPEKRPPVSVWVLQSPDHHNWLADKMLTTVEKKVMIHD

5-HT6 receptor = 5-HT6 receptor (Homo sapiens, UniProt P50406); assay: Functional activity at other receptor sites relative to psilocin (Table 5), 5-HT6; conditions: for 5-HT6 Eff %: Table 5, 5-HT6 receptor, compared with psilocin
5-HT6 receptor, sequence (P50406 whole entry): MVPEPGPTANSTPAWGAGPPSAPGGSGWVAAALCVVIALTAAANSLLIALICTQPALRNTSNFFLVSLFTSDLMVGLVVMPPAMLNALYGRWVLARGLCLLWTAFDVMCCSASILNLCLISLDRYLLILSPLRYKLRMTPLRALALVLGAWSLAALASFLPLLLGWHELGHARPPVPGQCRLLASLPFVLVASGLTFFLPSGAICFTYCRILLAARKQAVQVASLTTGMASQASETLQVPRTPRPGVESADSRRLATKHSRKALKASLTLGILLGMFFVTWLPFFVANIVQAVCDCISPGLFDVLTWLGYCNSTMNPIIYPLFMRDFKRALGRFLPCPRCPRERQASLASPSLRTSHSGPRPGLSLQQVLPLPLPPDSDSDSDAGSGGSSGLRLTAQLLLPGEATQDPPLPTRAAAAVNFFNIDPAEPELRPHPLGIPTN

5-HT2B receptor = biological target: T1, 5-HT2B receptor (Homo sapiens, UniProt P41595); assay: Serotonin receptor 5-HT2 functional assay (Gq dissociation BRET or Gq-dependent calcium flux), 5-HT2B; type: cell-based; conditions: for 5-HT2B BRET Eff %: efficacy relative to 4-hydroxytryptamine
T1 construct: expressed in transfected cells; host or cells: HEK293T
T1 sequence (P41595 whole entry): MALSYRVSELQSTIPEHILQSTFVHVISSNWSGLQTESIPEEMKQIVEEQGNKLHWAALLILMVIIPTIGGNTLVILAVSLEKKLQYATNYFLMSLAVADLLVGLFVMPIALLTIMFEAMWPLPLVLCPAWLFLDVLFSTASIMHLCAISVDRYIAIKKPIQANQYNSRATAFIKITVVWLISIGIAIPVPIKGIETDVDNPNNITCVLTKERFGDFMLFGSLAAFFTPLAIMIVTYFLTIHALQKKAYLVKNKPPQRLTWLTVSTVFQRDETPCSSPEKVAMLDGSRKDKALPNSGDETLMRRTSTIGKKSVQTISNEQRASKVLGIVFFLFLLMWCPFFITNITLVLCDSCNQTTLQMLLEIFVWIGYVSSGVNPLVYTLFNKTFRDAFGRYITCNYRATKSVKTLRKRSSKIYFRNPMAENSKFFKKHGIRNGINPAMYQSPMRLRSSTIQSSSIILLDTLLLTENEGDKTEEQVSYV

5-HT2A receptor = biological target: T2, 5-HT2A receptor (Homo sapiens, UniProt P28223); assay: Serotonin receptor 5-HT2 functional assay (Gq dissociation BRET or Gq-dependent calcium flux), 5-HT2A; type: cell-based; conditions: for 5-HT2A BRET Eff %: efficacy relative to 4-hydroxytryptamine
T2 construct: expressed in transfected cells; host or cells: HEK293T
T2 sequence (P28223 whole entry): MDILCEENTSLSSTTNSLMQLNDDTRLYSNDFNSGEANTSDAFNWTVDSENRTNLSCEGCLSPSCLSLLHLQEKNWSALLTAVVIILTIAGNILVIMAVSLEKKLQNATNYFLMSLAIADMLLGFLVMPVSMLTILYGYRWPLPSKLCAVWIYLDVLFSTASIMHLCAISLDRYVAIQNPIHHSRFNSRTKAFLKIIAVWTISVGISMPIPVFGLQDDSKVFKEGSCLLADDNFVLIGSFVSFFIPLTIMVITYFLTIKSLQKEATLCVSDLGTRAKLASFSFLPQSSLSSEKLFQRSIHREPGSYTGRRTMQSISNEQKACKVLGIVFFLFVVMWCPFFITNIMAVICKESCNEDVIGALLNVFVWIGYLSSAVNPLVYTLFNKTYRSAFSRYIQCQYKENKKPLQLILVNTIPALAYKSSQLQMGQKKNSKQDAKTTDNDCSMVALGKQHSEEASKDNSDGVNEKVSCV

5-HT1F receptor = biological target: T3, 5-HT1F receptor (Homo sapiens, UniProt P30939); assay: Functional activity at other receptor sites relative to psilocin (Table 5), 5-HT1F; conditions: for 5-HT1F Eff %: Table 5, 5-HT1F receptor, compared with psilocin
T3 sequence (P30939 1-366): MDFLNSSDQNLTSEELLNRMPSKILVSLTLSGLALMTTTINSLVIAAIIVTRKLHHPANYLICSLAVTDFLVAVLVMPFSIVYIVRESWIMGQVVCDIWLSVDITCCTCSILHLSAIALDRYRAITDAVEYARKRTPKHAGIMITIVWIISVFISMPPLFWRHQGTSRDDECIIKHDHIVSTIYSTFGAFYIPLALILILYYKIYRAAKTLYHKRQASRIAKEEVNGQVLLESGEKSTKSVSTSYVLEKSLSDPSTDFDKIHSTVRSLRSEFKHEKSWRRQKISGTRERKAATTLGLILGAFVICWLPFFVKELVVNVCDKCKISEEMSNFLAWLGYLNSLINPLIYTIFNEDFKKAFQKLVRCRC

5-HT2C receptor = biological target: T4, 5-HT2C receptor (Homo sapiens, UniProt P28335); assay: cell-based
T4 construct: expressed in transfected cells; host or cells: HEK293T
T4 sequence (P28335 33-458): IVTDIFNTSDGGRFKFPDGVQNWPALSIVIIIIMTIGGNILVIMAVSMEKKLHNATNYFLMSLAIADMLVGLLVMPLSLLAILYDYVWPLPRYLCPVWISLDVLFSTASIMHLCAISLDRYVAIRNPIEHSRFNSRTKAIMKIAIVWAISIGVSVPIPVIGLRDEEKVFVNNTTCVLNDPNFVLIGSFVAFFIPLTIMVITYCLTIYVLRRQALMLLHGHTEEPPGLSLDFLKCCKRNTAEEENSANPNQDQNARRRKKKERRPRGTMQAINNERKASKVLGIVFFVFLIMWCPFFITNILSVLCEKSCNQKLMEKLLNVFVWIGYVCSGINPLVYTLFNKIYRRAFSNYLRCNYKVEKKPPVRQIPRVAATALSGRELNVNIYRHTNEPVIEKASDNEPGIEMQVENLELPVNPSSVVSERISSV

other receptor sites [4] = biological target: T5, other receptor sites (Homo sapiens, UniProt P08908); assay: Functional activity at other receptor sites relative to psilocin (Table 5), further receptors; conditions: read-out: 5-HT1A EC50, 5-HT1A receptor, compared with psilocin
T5 sequence (P08908 1-422): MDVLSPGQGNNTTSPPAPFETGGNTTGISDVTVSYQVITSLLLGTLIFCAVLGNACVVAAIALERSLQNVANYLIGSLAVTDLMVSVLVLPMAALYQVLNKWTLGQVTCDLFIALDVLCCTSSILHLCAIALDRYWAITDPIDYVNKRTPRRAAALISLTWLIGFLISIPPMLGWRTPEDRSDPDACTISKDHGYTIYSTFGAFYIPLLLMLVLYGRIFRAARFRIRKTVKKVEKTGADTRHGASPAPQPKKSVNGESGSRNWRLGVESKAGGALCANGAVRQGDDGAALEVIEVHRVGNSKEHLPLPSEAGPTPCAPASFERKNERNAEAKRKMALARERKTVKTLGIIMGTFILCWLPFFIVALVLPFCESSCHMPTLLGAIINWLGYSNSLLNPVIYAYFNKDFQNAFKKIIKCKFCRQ

other receptor sites [5] = biological target: other receptor sites (Homo sapiens, UniProt P28566); assay: as above; conditions: read-out: 5-HT1E EC50, 5-HT1E receptor, compared with psilocin
other receptor sites (Homo sapiens, UniProt P28566), sequence (P28566 whole entry): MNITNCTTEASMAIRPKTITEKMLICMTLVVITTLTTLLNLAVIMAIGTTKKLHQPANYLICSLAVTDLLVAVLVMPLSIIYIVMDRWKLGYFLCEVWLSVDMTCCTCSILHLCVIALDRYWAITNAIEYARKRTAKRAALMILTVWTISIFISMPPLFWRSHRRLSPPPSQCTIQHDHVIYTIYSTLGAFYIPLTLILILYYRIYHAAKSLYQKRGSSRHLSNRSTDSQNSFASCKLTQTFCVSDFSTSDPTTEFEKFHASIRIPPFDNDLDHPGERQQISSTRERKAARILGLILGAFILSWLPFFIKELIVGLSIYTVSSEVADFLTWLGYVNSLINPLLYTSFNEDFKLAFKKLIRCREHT

other receptor sites [6] = biological target: other receptor sites (Homo sapiens, UniProt P28221); assay: as above; conditions: read-out: 5-HT1D EC50, 5-HT1D receptor, compared with psilocin
other receptor sites (Homo sapiens, UniProt P28221), sequence (P28221 whole entry): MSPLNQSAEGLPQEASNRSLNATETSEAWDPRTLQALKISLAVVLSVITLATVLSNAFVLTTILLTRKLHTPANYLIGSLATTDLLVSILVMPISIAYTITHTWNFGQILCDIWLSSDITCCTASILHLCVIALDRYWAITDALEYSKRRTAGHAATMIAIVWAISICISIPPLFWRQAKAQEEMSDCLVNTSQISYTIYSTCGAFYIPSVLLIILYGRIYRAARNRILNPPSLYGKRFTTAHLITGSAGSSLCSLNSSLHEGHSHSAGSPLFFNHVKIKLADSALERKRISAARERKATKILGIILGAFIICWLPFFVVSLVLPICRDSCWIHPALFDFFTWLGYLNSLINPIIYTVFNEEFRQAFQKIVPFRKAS

other receptor sites [7] = biological target: other receptor sites (Homo sapiens, UniProt P28222); assay: as above; conditions: read-out: 5-HT1B EC50, 5-HT1B receptor, compared with psilocin
other receptor sites (Homo sapiens, UniProt P28222), sequence (P28222 whole entry): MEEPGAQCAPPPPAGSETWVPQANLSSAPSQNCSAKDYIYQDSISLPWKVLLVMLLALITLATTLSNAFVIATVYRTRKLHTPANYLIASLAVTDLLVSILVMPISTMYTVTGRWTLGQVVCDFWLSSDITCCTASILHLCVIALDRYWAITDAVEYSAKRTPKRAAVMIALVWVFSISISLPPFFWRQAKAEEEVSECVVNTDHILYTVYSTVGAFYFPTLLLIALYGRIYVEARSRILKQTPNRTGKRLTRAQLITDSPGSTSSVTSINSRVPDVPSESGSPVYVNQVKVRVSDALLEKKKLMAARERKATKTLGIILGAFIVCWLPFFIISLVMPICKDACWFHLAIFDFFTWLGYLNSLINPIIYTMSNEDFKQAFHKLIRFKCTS

other receptor sites [8] = biological target: other receptor sites (Homo sapiens, UniProt P47898); assay: as above; conditions: read-out: 5-HT5A EC50, 5-HT5A receptor, compared with psilocin
other receptor sites (Homo sapiens, UniProt P47898), sequence (P47898 whole entry): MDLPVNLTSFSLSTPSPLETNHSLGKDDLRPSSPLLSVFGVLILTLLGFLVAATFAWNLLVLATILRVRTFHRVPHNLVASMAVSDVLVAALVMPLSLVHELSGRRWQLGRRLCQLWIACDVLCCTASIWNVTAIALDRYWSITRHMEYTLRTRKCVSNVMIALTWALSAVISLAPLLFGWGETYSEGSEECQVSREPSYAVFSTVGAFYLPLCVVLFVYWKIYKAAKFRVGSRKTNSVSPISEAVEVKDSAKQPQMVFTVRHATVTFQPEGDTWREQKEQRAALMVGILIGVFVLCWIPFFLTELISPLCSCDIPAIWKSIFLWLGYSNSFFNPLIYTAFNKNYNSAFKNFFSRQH

[9] = Table 5, 5-HT2B receptor, compared with psilocin
[10] = Table 5, 5-HT2A receptor, compared with psilocin
[11] = Table 4, at least three replicate trials

**Q.** For `CN(C)CCc1c[nH]c2cccc(O)c12` [drawing 39], which EC50 (other receptor sites [1]) is on record?
**A.** 563 nM

**Q.** And the “5-HT1A Eff %” value (other receptor sites [2])?
**A.** 93%

**Q.** And the “5-HT1B Eff %” value (other receptor sites [2])?
**A.** 94%

**Q.** What about the “5-HT1D Eff %” value (other receptor sites [2]) of the same compound?
**A.** 102%

**Q.** And the “5-HT1E Eff %” value (other receptor sites [2])?
**A.** 90%

**Q.** And the “5-HT4 Eff %” value (other receptor sites [2])?
**A.** 81%

**Q.** What about the “5-HT5A Eff %” value (other receptor sites [2]) of the same compound?
**A.** 48%

**Q.** What about the “5-HT7 Eff %” value (other receptor sites [2]) of the same compound?
**A.** 86%

**Q.** What about the EC50 (other receptor sites [3]) of the same compound?
**A.** 525 nM

**Q.** What about the EC50 (5-HT6 receptor) of the same compound?
**A.** 183 nM

**Q.** And the “5-HT6 Eff %” value (5-HT6 receptor)?
**A.** 74%

**Q.** And the “5-HT2B Eff %” value (5-HT2B receptor; [9])?
**A.** 63%

**Q.** And the “5-HT2A Eff %” value (5-HT2A receptor; [10])?
**A.** 82%

**Q.** What about the EC50 (5-HT1F receptor) of the same compound?
**A.** 9.3 nM

**Q.** And the “5-HT1F Eff %” value (5-HT1F receptor)?
**A.** 93%

**Q.** With `Cc1cc2c(c3c(CCN)c[nH]c13)CCCO2` [Compound 110] as the compound, how does the “5-HT2B BRET Eff %” value (5-HT2B receptor; [11]) read?
**A.** 63%

**Q.** What about the EC50 (5-HT2B receptor; Table 4, relative to 4-hydroxytryptamine, at least three replicate trials, read-out: 5-HT2B BRET EC50) of the same compound?
**A.** 139 nM

**Q.** What about the “5-HT2C BRET Eff %” value (5-HT2C receptor; Table 4, efficacy relative to 4-hydroxytryptamine, at least three replicate trials) of the same compound?
**A.** 96%

**Q.** And the EC50 (5-HT2C receptor; Table 4, relative to 4-hydroxytryptamine, at least three replicate trials, read-out: 5-HT2C BRET EC50)?
**A.** 69 nM

**Q.** And the “5-HT2A BRET Eff %” value (5-HT2A receptor; [11])?
**A.** 91%

**Q.** What about the EC50 (5-HT2A receptor; Table 4, relative to 4-hydroxytryptamine, at least three replicate trials, read-out: 5-HT2A BRET EC50) of the same compound?
**A.** 277 nM

**Q.** What does the source list for `CCN(C)CCc1c[nH]c2c(C)ccc(O)c12` [Compound 14]?
**A.** 5-HT2B BRET Eff % (5-HT2B receptor; [11]): inactive; 5-HT2B BRET EC50 (nM) (5-HT2B receptor; Table 4, relative to 4-hydroxytryptamine, at least three replicate trials): inactive; 5-HT2C BRET Eff % (5-HT2C receptor): 108%; EC50 (5-HT2C receptor): 4.2 nM; EC50 (5-HT2A receptor): 82 nM; 5-HT2A BRET Eff % (5-HT2A receptor; [11]): 63%

**Q.** Which EC50 (other receptor sites [4]) does the source give for `Cc1ccc(O)c2c(CCN(C)C)c[nH]c12` [drawing 38] here?
**A.** 12600 nM

**Q.** What about the EC50 (other receptor sites [5]) of the same compound?
**A.** 167 nM

**Q.** And the EC50 (other receptor sites [1])?
**A.** 257 nM

**Q.** What about the EC50 (other receptor sites [6]) of the same compound?
**A.** 749 nM

**Q.** What about the EC50 (other receptor sites [7]) of the same compound?
**A.** 309 nM

**Q.** And the “5-HT1A Eff %” value (other receptor sites [2])?
**A.** 76%

**Q.** And the “5-HT1B Eff %” value (other receptor sites [2])?
**A.** 105%

**Q.** What about the “5-HT1D Eff %” value (other receptor sites [2]) of the same compound?
**A.** 112%

**Q.** What about the “5-HT1E Eff %” value (other receptor sites [2]) of the same compound?
**A.** 102%

**Q.** What about the “5-HT4 Eff %” value (other receptor sites [2]) of the same compound?
**A.** 13%

**Q.** What about the “5-HT5A Eff %” value (other receptor sites [2]) of the same compound?
**A.** 20%

**Q.** And the “5-HT7 Eff %” value (other receptor sites [2])?
**A.** 3.4%

**Q.** And the EC50 (other receptor sites [3])?
**A.** 5.2 nM

**Q.** And the EC50 (other receptor sites [8])?
**A.** 23000 nM

**Q.** And the EC50 (5-HT6 receptor)?
**A.** 9 nM

**Q.** And the “5-HT6 Eff %” value (5-HT6 receptor)?
**A.** 48%

**Q.** What about the EC50 (5-HT2B receptor; 5-HT2B EC50 (nM), Table 5, 5-HT2B receptor, compared with psilocin) of the same compound?
**A.** 3.6 nM

**Q.** What about the “5-HT2B Eff %” value (5-HT2B receptor; [9]) of the same compound?
**A.** 16%

**Q.** What about the “5-HT2C Eff %” value (5-HT2C receptor; Table 5, 5-HT2C receptor, compared with psilocin) of the same compound?
**A.** 79%

**Q.** And the EC50 (5-HT2C receptor; Table 5, 5-HT2C receptor, compared with psilocin, read-out: 5-HT2C EC50)?
**A.** 6.9 nM

**Q.** What about the “5-HT2A Eff %” value (5-HT2A receptor; [10]) of the same compound?
**A.** 73%

**Q.** What about the EC50 (5-HT2A receptor; read-out: 5-HT2A EC50, Table 5, 5-HT2A receptor, compared with psilocin) of the same compound?
**A.** 66 nM

**Q.** And the EC50 (5-HT1F receptor)?
**A.** 23 nM

**Q.** What about the “5-HT1F Eff %” value (5-HT1F receptor) of the same compound?
**A.** 92%
